Measured values as given in ChEMBL document CHEMBL2311386, “Alkyl substituted 2'-benzoylpyridine thiosemicarbazone chelators with potent and selective anti-neoplastic activity: novel ligands that limit methemoglobin formation” (J Med Chem, 2013).

Columns and labels:
[1] = Induction of ascorbate oxidation in citrate buffer in presence of 10 uM Fe3+ at 1 to 60 uM; assay type: physicochemical
[2] = tested on: SK-N-MC; assay: Cytotoxicity against human SK-N-MC cells assessed as growth inhibition after 72 hrs by MTT assay; assay type: functional, cell-based
[3] = Therapeutic index, ratio of IC50 for human MRC5 cells to IC50 for human SK-N-MC cells; assay type: cell-based; conditions: MRC5 cells and SK-N-MC cells, read-out: Ratio IC50
[4] = Toxicity in human RBC lysates assessed as methemoglobin formation at 25 uM after 3 hrs relative to control; set-up: species or system Lysate; conditions: erythrocyte
[5] = tested on: MRC5; assay: Cytotoxicity against human MRC5 cells assessed as growth inhibition after 72 hrs by MTT assay; assay type: cell-based; conditions: MRC5, 72 h
[6] = Toxicity in intact human RBC assessed as methemoglobin formation at 25 uM after 3 hrs relative to untreated control; assay type: cell-based; conditions: erythrocyte
[7] = Toxicity in human RBC lysates assessed as methemoglobin formation using Fe(compound)2 complex at 25 uM after 3 hrs relative to control; set-up: species or system Lysate; conditions: erythrocyte
[8] = Toxicity in intact human RBC assessed as methemoglobin formation using Fe(compound)2 complex at 25 uM after 3 hrs relative to untreated control; assay type: cell-based; conditions: erythrocyte
[9] = tested on: SK-N-MC; assay: Reduction of cellular 59Fe uptake from 59Fe-Transferrin in human SK-N-MC cells assessed as 59Fe level prelabeled with 59Fe2-Tf at 25 uM after 3 hrs relative to control; assay type: functional; set-up: scale not given: the % may be the effect or the level left
[10] = Toxicity in human RBC lysates assessed as methemoglobin formation at 25 uM after 3 hrs (reference value: 1.2 +/- 8%); assay type: cell-based, Lysate; conditions: erythrocyte
[11] = Toxicity in intact human RBC assessed as methemoglobin formation using Fe(compound)2 complex at 25 uM after 3 hrs relative to free ligand; conditions: erythrocyte

Activity [1] | SMILES | IC50 [2] [nM] | selectivity ratio [3] | Activity [4] | IC50 [5] [nM] | Activity [6] | Activity [7] | Activity [8] | Activity [9] [%] | Activity [10] [%] | fold change (FC) [6] | fold change (FC) [11]
Not Active | CN(C)C(=S)N/N=C(\c1ccccc1)c1ccccn1 | 5 | 202 |  |  |  |  |  |  |  |  | 
Active | NC(=S)N/N=C(\c1ccccc1)c1ccccn1 | 3800 | > 3 | Non-toxic | > 12500 | Toxic | Non-toxic | Toxic |  |  |  | 
 | CNC(=S)N/N=C(\c1ccc(C(C)(C)C)cc1)c1ccccn1 | 15 | 164 | Non-toxic | 2460 | Non-toxic | Non-toxic | Non-toxic |  |  |  | 
 | CC(C)(C)c1ccc(/C(=N\NC(=S)Nc2ccccc2)c2ccccn2)cc1 | 109 | 17 | Non-toxic | 1890 | Non-toxic | Non-toxic | Non-toxic |  |  |  | 
 | COc1ccc(/C(=N\NC(=S)Nc2ccccc2)c2ccccn2)cc1 | 19 | 45 | Non-toxic | 864 | Non-toxic | Non-toxic | Non-toxic |  |  |  | 
 | Cc1ccc(/C(=N\NC(=S)Nc2ccccc2)c2ccccn2)cc1 | 24 | 63 | Non-toxic | 1520 | Non-toxic | Non-toxic | Non-toxic |  |  |  | 
Not Active | CN(C)C(=S)N/N=C(\c1ccc(C(C)(C)C)cc1)c1ccccn1 | 72 | 15 |  | 1070 | Non-toxic |  | Non-toxic |  |  |  | 
Not Active | COc1ccc(/C(=N\NC(=S)N(C)C)c2ccccn2)cc1 | 17 | 66 |  | 1140 | Non-toxic |  | Non-toxic | 8 |  |  | 
Not Active | Cc1ccc(/C(=N\NC(=S)N(C)C)c2ccccn2)cc1 | 7 | 131 |  | 921 | Non-toxic |  | Non-toxic | 8 |  |  | 
 | CCNC(=S)N/N=C(\c1ccc(OC)cc1)c1ccccn1 | 16 | 102 | Non-toxic | 1650 | Non-toxic | Non-toxic | Non-toxic | 8 |  |  | 
 | CCNC(=S)N/N=C(\c1ccc(C(C)(C)C)cc1)c1ccccn1 | 20 | 147 | Non-toxic | 2940 | Non-toxic | Non-toxic | Non-toxic |  |  |  | 
 | CCNC(=S)N/N=C(\c1ccc(C)cc1)c1ccccn1 | 13 | 164 | Non-toxic | 2140 | Non-toxic | Non-toxic | Non-toxic | 8 |  |  | 
 | CNC(=S)N/N=C(\c1ccc(OC)cc1)c1ccccn1 | 22 | 92 | Non-toxic | 2030 | Non-toxic | Non-toxic | Non-toxic | 8 |  |  | 
 | CNC(=S)N/N=C(\c1ccc(C)cc1)c1ccccn1 | 15 | 141 | Toxic | 2120 | Non-toxic | Toxic | Non-toxic | 8 |  |  | 
Active | CC(C)(C)c1ccc(/C(=N\NC(N)=S)c2ccccn2)cc1 | 14 | 58 | Non-toxic | 814 | Non-toxic | Non-toxic | Non-toxic |  |  |  | 
Active | Cc1ccc(/C(=N\NC(N)=S)c2ccccn2)cc1 | 146 | > 85 | Toxic | > 12500 | Toxic | Toxic | Toxic | 8 |  |  | 
Active | COc1ccc(/C(=N\NC(N)=S)c2ccccn2)cc1 | 3950 | > 3 | Non-toxic | > 12500 | Toxic | Non-toxic | Toxic | 8 |  |  | 
 | CNC(=S)N/N=C(\c1ccccc1)c1ccccn1 | 20 | 116 | Non-toxic |  | Non-toxic | Non-toxic | Non-toxic |  |  |  | 
Active | CN(C)C(=S)NN=C(c1ccccn1)c1ccccn1 | 7 |  |  |  |  |  |  | 4 | 12 | 45 | 2.3
 | S=C(N/N=C(\c1ccccc1)c1ccccn1)Nc1ccccc1 | 16 | 36 | Non-toxic | 571 | Non-toxic | Non-toxic | Non-toxic |  |  |  | 
 | CCNC(=S)N/N=C(\c1ccccc1)c1ccccn1 | 14 | 106 | Non-toxic | 1490 | Non-toxic | Non-toxic | Non-toxic |  |  |  | 
 | CC(=O)N(O)CCCCCNC(=O)CCC(=O)N(O)CCCCCNC(=O)CCC(=O)N(O)CCCCCN [DEFEROXAMINE] |  |  |  |  |  |  |  | 77 |  |  | 
 | NC(=S)N/N=C/c1ncccc1N [TRIAPINE] |  |  |  |  |  |  |  | 54 | 17 | 38 | 
